In PubChem BioAssay AID623999 (Broad Institute, 2012):
Records with an inconclusive call do not appear. Values belong to the compound of their own block, whether it stands above or below them. Active and inactive are the calls of the source.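 The calls were made as follows: active = inhibition in every test run, with half-maximal concentration at most twice the top tested dose; inconclusive = the separate test runs disagree on their calls; inactive = every test run inactive, including opposite effects.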

Target: Cyclin-dependent kinase 5 (Homo sapiens) + Cyclin-dependent kinase 5 activator 1 (Homo sapiens) (UniProt Q00535+Q15078)
Sequence (Q00535 whole entry, looked up): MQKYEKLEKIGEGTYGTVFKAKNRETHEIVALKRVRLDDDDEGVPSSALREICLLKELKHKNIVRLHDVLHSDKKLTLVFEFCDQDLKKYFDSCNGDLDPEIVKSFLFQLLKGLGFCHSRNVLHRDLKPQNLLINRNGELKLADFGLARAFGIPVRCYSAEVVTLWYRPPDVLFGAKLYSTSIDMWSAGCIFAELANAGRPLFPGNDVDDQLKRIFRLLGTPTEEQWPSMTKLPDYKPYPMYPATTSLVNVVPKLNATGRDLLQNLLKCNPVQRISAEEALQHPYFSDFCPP
Sequence (Q15078 whole entry, looked up): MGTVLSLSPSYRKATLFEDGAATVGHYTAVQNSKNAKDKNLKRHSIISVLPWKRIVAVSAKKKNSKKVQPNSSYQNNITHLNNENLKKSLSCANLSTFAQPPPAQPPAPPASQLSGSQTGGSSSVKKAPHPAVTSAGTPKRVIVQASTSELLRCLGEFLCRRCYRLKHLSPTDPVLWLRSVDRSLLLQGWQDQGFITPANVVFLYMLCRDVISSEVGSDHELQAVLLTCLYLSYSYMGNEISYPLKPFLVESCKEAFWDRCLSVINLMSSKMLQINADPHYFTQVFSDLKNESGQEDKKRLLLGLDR
Assay: inhibitors of human CDK5 activity – biochemical, ADP-Glo luminescence, dry powder samples, selectivity assay for GSK3beta inhibitor project, dose response (AID 623999)
Conditions: CDK5-p25 kinase, histone H1 peptide; for activity change, negative = inhibition: at 46 µM (top of the series)

activity change, negative = inhibition: inactive
Compound: COc1ccccc1C1C2=C(CC(C)(C)CC2=O)Nc2n[nH]c(C(C)(C)C)c21 (centres undefined)

AC50: 5.1 µM
Compound: Cc1[nH]nc2c1C(c1ccccc1Cl)C1=C(CC(C)(C)CC1=O)N2 (centres undefined)

AC50: 47.2 µM
Compound: CC1(C)CC(=O)C2=C(C1)Nc1n[nH]c(C(F)(F)F)c1C2c1ccccc1F (centres undefined)

activity change, negative = inhibition: inactive
Compound: Cc1[nH]nc2c1C(c1ccc(C(F)(F)F)cc1)C1=C(CC(C)(C)CC1=O)N2 (centres undefined)

AC50: 32.6 µM
Compound: CC1(C)CC(=O)C2=C(C1)Nc1n[nH]c(C(F)(F)F)c1C2c1cc(F)ccc1OC(F)(F)F (centres undefined)

AC50: 0.841 µM
Compound: Cc1[nH]nc2c1C(c1ccccc1C(F)(F)F)C1=C(CC(C)(C)CC1=O)N2 (centres undefined)

AC50: 2.22 µM
Compound: CCc1[nH]nc2c1C(c1ccccc1OC)C1=C(CC(C)(C)CC1=O)N2 (centres undefined)

AC50: 8.29 µM
Compound: CC1(C)CC(=O)C2=C(C1)Nc1n[nH]c(C(F)(F)F)c1C2c1cc(F)ccc1C(F)(F)F (centres undefined)

AC50: 22.4 µM
Compound: CC1(C)CC(=O)C2=C(C1)Nc1n[nH]c(C(F)(F)F)c1C2c1ccc(F)cc1C(F)(F)F (centres undefined)

AC50: 43 µM
Compound: CC1(C)CC(=O)C2=C(C1)Nc1n[nH]c(C(F)(F)F)c1C2c1c(F)cccc1F (centres undefined)

AC50: 3.98 µM
Compound: CSc1ccccc1C1C2=C(CC(C)(C)CC2=O)Nc2n[nH]c(C)c21 (centres undefined)

AC50: 22.2 µM
Compound: CC1(C)CC(=O)C2=C(C1)Nc1n[nH]c(C(F)(F)F)c1C2c1ccccc1 (centres undefined)

AC50: 0.461 µM
Compound: Cc1[nH]nc2c1[C@@H](c1ccccc1C(F)(F)F)C1=C(CC(C)(C)CC1=O)N2

AC50: 16.5 µM
Compound: Cc1ccccc1C1C2=C(CC(C)(C)CC2=O)Nc2n[nH]c(C)c21 (centres undefined)

AC50: 10.9 µM
Compound: Cc1[nH]nc2c1C(c1cccc(C(F)(F)F)c1)C1=C(CC(C)(C)CC1=O)N2 (centres undefined)

AC50: 47.4 µM
Compound: CC1(C)CC(=O)C2=C(C1)Nc1n[nH]c(C(F)(F)F)c1C2c1cc(F)ccc1F (centres undefined)

activity change, negative = inhibition: inactive
Compound: COc1ccccc1[C@H]1C2=C(CC(C)(C)CC2=O)Nc2n[nH]c(C(F)(F)F)c21

More lines, now with the values behind:

Compound: CC1(C)CC(=O)/C(=C\c2ccccc2C(F)(F)F)C(=Nc2cc(C(F)(F)F)[nH]n2)C1
activity change, negative = inhibition: inactive

Compound: COc1ccc(-c2nn(-c3ccccc3)cc2C(=O)O)cc1
activity change, negative = inhibition: inactive

Compound: Cc1[nH]nc2c1C(c1ccc(C#N)cc1)C1=C(CC(C)(C)CC1=O)N2 (centres undefined)
activity change, negative = inhibition: inactive

Compound: O/N=C/c1cn(-c2ccccc2)nc1-c1ccccc1
activity change, negative = inhibition: inactive

Compound: Cc1[nH]nc2c1C(C)C1=C(CC(C)(C)CC1=O)N2 (centres undefined)
AC50: 27.8 µM

Compound: COc1ccccc1C1C2=C(CC(C)(C)CC2=O)Nc2onc(C)c21 (centres undefined)
activity change, negative = inhibition: inactive

Compound: COc1ccccc1C1C(C(C)=O)=C(C)Nc2n[nH]c(C)c21 (centres undefined)
AC50: 9.55 µM

Compound: Cc1[nH]nc2c1C(c1ccccc1C#N)C1=C(CC(C)(C)CC1=O)N2 (centres undefined)
AC50: 4.04 µM

Compound: CC1(C)CC(=O)/C(=C\c2cccc(F)c2C(F)(F)F)C(=Nc2cc(C(F)(F)F)[nH]n2)C1
activity change, negative = inhibition: inactive

Compound: CNC(=O)c1cn(-c2ccccc2)nc1-c1ccc(OC)cc1
activity change, negative = inhibition: inactive

Compound: O/N=C/c1cn(-c2ccccc2)nc1-c1ccc(F)cc1
activity change, negative = inhibition: inactive

Compound: Cc1cccc(C2C3=C(CC(C)(C)CC3=O)Nc3n[nH]c(C)c32)c1 (centres undefined)
AC50: 39.7 µM

Compound: COc1ccc(-c2nn(-c3ccccc3)cc2CO)cc1
activity change, negative = inhibition: inactive

Compound: CC(C)COc1ccc(-c2nn(-c3ccccc3)cc2/C=N/O)cc1
activity change, negative = inhibition: inactive

Compound: Cc1[nH]nc2c1C(c1cccc(C#N)c1)C1=C(CC(C)(C)CC1=O)N2 (centres undefined)
AC50: 6.81 µM

Compound: CC(C)c1ccc(-c2nn(-c3ccccc3)cc2/C=N/O)cc1
activity change, negative = inhibition: inactive

Compound: Cc1[nH]nc2c1C(c1cccc3nonc13)C1=C(CC(C)(C)CC1=O)N2 (centres undefined)
AC50: 2.57 µM

Compound: COc1ccc(-c2nn(-c3ccccc3)cc2C(=O)N(C)C)cc1
activity change, negative = inhibition: inactive

Compound: COc1ccccc1-c1c2c(nc3n[nH]c(C)c13)CCC2=O
AC50: 34.6 µM

Compound: O=S(=O)(Nc1ccccn1)c1ccc(N=Cc2c(O)[nH]c3ccc4ncsc4c23)cc1
AC50: 0.418 µM

Compound: COc1ccccc1C1C2=C(CC(C)(C)CC2=O)Nc2[nH]ncc21 (centres undefined)
AC50: 5.82 µM

Compound: Cc1[nH]nc2c1C(C1CCCCC1)C1=C(CC(C)(C)CC1=O)N2 (centres undefined)
activity change, negative = inhibition: inactive

Compound: COc1ccccc1C1C2=C(CCC(C)(C)C2=O)Nc2n[nH]c(C)c21 (centres undefined)
AC50: 10.1 µM

Compound: O/N=C/c1cn(-c2ccccc2)nc1-c1ccc(Cl)cc1
AC50: 25.4 µM

Compound: CN(C)Cc1cn(-c2ccccc2)nc1-c1ccccc1
activity change, negative = inhibition: inactive

Compound: COc1ccccc1C1C2=C(CC3(CCCCC3)CC2=O)Nc2n[nH]c(C)c21 (centres undefined)
AC50: 5.88 µM

Compound: COc1ccccc1/C=C1\C(=O)CC(C)(C)CC1=Nc1cc(C(F)(F)F)[nH]n1
activity change, negative = inhibition: inactive

Compound: COc1cccc(-c2nn(-c3ccccc3)cc2/C=N/O)c1
activity change, negative = inhibition: inactive

Compound: Cc1[nH]nc2nc3c(cc12)C(=O)CC(C)(C)C3
activity change, negative = inhibition: inactive

Compound: COc1ccccc1C1C2=C(CC(C)(C)CC2=O)Nc2n[nH]c(C(C)C)c21 (centres undefined)
AC50: 4.84 µM

Compound: COc1ccccc1C1C2=C(CCCC2=O)Nc2n[nH]c(C)c21 (centres undefined)
AC50: 15.1 µM

Compound: Cc1[nH]nc2c1C(C)(c1ccccc1)C1=C(CC(C)(C)CC1=O)N2 (centres undefined)
AC50: 14.5 µM
